One data set concerns the target ALDH1A1 (Homo sapiens, UniProt P00352). The data set is described as follows: ALDH enzymatic activity, in vitro inhibition. The conditions noted are these: IC50 ALDH1A1, in vitro enzymatic assay, propionaldehyde/NAD+. It is filed as biochemical.
In the next data set the target is ALDH1A2 (Homo sapiens, UniProt O94788). Put plainly: ALDH enzymatic activity, in vitro inhibition. It is filed as biochemical. The following applies: IC50 ALDH1A2, in vitro enzymatic assay, propionaldehyde/NAD+.
ALDH1A2, sequence (O94788 whole entry): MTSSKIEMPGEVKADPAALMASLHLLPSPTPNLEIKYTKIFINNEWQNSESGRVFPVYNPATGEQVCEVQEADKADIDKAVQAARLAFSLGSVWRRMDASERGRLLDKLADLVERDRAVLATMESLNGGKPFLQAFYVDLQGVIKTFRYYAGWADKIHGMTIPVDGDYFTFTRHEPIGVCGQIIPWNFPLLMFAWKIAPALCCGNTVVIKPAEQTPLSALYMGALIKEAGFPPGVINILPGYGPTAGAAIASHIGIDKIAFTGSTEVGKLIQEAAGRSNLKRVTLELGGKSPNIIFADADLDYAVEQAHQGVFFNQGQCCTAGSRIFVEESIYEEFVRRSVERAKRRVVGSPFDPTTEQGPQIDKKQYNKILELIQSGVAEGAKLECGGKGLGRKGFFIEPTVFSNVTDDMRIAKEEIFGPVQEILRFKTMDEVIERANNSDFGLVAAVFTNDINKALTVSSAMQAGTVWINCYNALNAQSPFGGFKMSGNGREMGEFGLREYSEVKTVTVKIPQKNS
The target in the next data set is ALDH1A3 (Homo sapiens, UniProt P47895). Put plainly: ALDH enzymatic activity, in vitro inhibition. It is filed as biochemical. The conditions noted are these: IC50 ALDH1A3, in vitro enzymatic assay, propionaldehyde/NAD+.
ALDH1A3, sequence (P47895 whole entry): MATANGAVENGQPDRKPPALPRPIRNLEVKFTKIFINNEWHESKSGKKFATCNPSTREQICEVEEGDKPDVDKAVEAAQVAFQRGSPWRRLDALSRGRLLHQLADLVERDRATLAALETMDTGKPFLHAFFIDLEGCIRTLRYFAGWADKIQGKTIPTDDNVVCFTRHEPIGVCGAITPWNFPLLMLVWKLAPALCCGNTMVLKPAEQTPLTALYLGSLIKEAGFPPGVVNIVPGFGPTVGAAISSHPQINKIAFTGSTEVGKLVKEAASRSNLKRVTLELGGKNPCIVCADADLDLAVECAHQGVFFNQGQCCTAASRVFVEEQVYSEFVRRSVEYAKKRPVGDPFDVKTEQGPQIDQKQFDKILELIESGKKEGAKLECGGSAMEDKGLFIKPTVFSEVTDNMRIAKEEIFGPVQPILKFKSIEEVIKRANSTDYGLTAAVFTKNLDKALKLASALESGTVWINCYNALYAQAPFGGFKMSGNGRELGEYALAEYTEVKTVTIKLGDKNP
In data set [1] the test system is other ALDH family members. Put plainly: ALDH enzymatic activity, in vitro inhibition. The following applies: in vitro enzymatic assay. Type of data set: biochemical.
In another data set the test system is PEO1 cells. Put plainly: ALDEFLUOR assay of ALDH activity in live PEO1 cells. Type of data set: cell-based.
Data set [2] relates to CD133+ cells (A2780, OVSAHO, OvCAR5). The data set is described as follows: Depletion of CD133+ CSC by FACS 72 h after treatment. Type of data set: cell-based.
Data set [3] concerns human mesenchymal stem cells. The data set is described as follows: Toxicity to normal cells. Type of data set: cell-based.
Data set [4] relates to non-malignant MCF10A cells. The data set is described as follows: Toxicity to normal cells. Type of data set: cell-based.
For data set [5], the system named is OVCAR5-ALDH1A3-knockout (KO) cells. The data set is described as follows: 673 dose-response in CRISPR knockout cells. It is filed as cell-based.
For data set [6], the system named is FACS-isolated ALDH+CD133+ A2780 cells. The data set is described as follows: Single-cell microfluidic culture cell death. Type of data set: cell-based. The conditions noted are these: microfluidic chips, 72 h.
The next data set concerns CD133+ cells. The data set is described as follows: Intracellular calcium level. Type of data set: cell-based. (Calcium flux is commonly read through the fluorescence of an indicator in the cells.)
In data set [7] the test system is bulk cells, multiple cell lines. The data set is described as follows: Bulk cell viability in multiple cell lines. Type of data set: cell-based.
The test system of data set [8] is chemotherapy-resistant SKOv3 cells. The data set is described as follows: Cellular recovery assay with cisplatin. It is filed as cell-based. The conditions noted are these: for cellular recovery: SKOv3, 9 days after treatment, single agent.
For data set [9], the system named is primary patient cells (HGS). The data set is described as follows: Tumor sphere growth assay. Type of data set: cell-based, human. The following applies: single 12.5 μM dose.
The test system of another data set is SKOv3 cells. Type of data set: in vivo, mice.
Data set [10] in a line: Hematologic, renal, and liver function tests. Type of data set: in vivo. The conditions noted are these: liver function tests, 673A added to cisplatin.
In a further data set the test system is platinum-resistant PDX. The data set is described as follows: Chemotherapy-resistant patient-derived xenograft. Type of data set: in vivo, mice. The following applies: 673A added to carboplatin or cisplatin. (In xenograft studies the graft and the host belong to different species.)
For the next data set, the system named is splenocytes. Put plainly: ALDEFLUOR activity in splenocytes of treated animals. It is filed as in vivo, mice. The conditions noted are these: animals being treated with 673A.
The subject of data set [11] is FACS-sorted CD133+ (A2780) cells. The data set is described as follows: Annexin-V/PI FACS analysis of apoptosis. Type of data set: cell-based. The following applies: 12.5 μM. On the technique in general: A flow cytometer gives signals particle by particle.
Data set [12] addresses ALDH1A1 Cys303 in SKOv3 tumors (Homo sapiens, UniProt P00352). The data set is described as follows: isoTOP-ABPP of ALDH1A in tumors in vivo. More on the design: species or system mice. The conditions noted are these: 673A-treated tumors.
The test system of data set [13] is primary cells from HGSC patients. Put plainly: Seahorse mitochondrial flux analysis. Type of data set: cell-based, human. The conditions noted are these: 12.5 μM.
The target of the next data set is ALDH2 (Homo sapiens, UniProt P05091). The data set is described as follows: biochemical.
ALDH2, sequence (P05091 18-517): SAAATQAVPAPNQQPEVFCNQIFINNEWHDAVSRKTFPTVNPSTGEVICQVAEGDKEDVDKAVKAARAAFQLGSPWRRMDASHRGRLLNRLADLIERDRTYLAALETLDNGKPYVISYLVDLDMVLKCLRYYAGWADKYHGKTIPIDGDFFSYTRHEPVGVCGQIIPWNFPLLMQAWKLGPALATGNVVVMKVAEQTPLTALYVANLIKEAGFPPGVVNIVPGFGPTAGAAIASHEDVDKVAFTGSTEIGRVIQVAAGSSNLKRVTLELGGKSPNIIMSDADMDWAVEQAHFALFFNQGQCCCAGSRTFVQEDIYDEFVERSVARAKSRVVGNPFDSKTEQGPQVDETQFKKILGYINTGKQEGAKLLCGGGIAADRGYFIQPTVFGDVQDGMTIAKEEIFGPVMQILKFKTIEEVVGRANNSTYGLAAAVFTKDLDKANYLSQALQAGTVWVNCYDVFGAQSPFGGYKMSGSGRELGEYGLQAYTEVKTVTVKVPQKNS
Data set [14] relates to Ovsaho, HEY-1, and A2780 cell-line xenografts. Put plainly: Cell-line xenografts, single agent.
For data set [15], the system named is FACS-sorted ALDH+ SKOv3 cells. Put plainly: Intraperitoneal ALDH+ SKOv3 survival study.
The next data set deals with CaoV3 cells. The data set is described as follows: Minimal residual disease model, CaoV3 subcutaneous. The conditions noted are these: 3 weeks treatment, 6 months follow-up.
Data set [16] has as its system endometrioid ovarian cancer.

pIC50: −log10 of the molar value. Several values for one entry are separate records, joined by “and”; a condition that tells them apart may be missing. Equal entries are not always repeated.

ALDH1A1, sequence (P00352 whole entry): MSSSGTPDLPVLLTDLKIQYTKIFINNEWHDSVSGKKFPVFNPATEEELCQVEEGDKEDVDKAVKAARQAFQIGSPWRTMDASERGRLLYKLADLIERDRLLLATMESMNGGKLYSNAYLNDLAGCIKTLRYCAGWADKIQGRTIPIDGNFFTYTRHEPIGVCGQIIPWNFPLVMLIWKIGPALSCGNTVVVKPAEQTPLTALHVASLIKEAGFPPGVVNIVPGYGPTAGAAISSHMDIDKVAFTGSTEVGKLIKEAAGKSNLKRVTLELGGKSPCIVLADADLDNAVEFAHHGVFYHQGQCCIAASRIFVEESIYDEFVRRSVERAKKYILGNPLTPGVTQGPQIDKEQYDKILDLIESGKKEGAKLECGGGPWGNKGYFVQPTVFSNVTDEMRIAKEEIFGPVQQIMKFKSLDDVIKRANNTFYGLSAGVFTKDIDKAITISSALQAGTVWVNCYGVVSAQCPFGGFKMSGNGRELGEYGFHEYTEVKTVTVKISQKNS
ALDH1A1 Cys303 in SKOv3 tumors, sequence (P00352 whole entry): as above

On to `O=Cc1ccc(N2Cc3ccccc3C2)cc1` [673A, 4-(1,3-dihydro-2H-isoindol-2-yl)benzaldehyde], for which the pIC50 on ALDH1A1 is 6.61 and > 6.46; against ALDH1A2, 6.64 and > 6.46; at ALDH1A3 it was 6.46 and > 6.46; at ALDH2, 4.85 and ~4.82. Moreover, the “inhibition of other ALDH family members tested” value in data set [1] is “minimal or no inhibition”. Moreover, the inhibition at 25 µM with PEO1 cells (Homo sapiens, PEO1, 6 h, read-out: inhibition of ALDEFLUOR activity) is 98%. The “time to inhibition of PEO1 ALDEFLUOR activity” value in the data set on PEO1 cells (PEO1 cells, persisted after 6 h) is recorded as ≤ 1 h. Also, in [2], the “depletion of CD133+ CSCs / toxicity” value is reported as “highly effective at preferentially depleting CD133^+ CSC”. The “toxicity to human mesenchymal stem cells” value in data set [3] is “little or no toxicity”. Moreover, the “toxicity to non-malignant MCF10A cells” value in data set [4] is “little or no toxicity”. Also, in data set [5], the “increase in TD50 versus control cells” value is ~ 10 ×. The “treated cells that died” value in data set [6] is reported as > 90%. Moreover, the results for the “increase in intracellular Ca” value in the data set with CD133+ cells (16 h after treatment) and in the data set with CD133+ cells (24 h after treatment) were 1.5 fold and 6 fold, respectively. The “TD50 bulk cell viability” value in data set [7] fell in the range of 40 to 80 µM. Moreover, the “reduction in cell number” value in data set [8] (SKOv3, 9 days after combined treatment of cisplatin and 673A) was determined as 30 fold. Besides, the cellular recovery in data set [8] is 100%. Moreover, the “average reduction in tumor sphere formation” value in data set [9] is 19 fold. Also, the tumor initiation capacity entry in the data set on SKOv3 cells (673A combined with cisplatin therapy) is reported as “eliminated tumor initiation capacity”. The “reduction in tumor growth versus no treatment or cisplatin therapy” value in the data set on SKOv3 cells (SKOv3 treated in vitro 12.5 μM, 48 h, 5,000 live cells injected) was 4–5 fold. For the same compound, the “reduction of tumor initiation” value with SKOv3 cells (limiting dilution assay, 673A alone) is ~ 50%. For the same compound, the “toxicity with addition to cisplatin” value in data set [10] is given as “no additional toxicity”. Also, in the data set on platinum-resistant PDX, the “reduction of final tumor weight” value is on record as “more than 2 fold”. For the same compound, the “decrease of ALDEFLUOR activity in splenocytes” value in the data set with splenocytes is reported as 3 fold. The “induction of annexin-V” value in [11] is on record as “no significant early or late induction of annexin-V”. For the same compound, the “engagement of ALDH1A1 catalytic residue” value in data set [12] is “clear protection of the catalytic residue Cys303 in ALDH1A1”. The OXPHOS capacity entry in data set [13] is on record as “decreased OXPHOS capacity”. The “reduction of tumor burden” value in data set [14] (20 mg/kg daily for 21 days) was 40%–60%. In data set [14] (in vivo, single agent), the “reduction of tumor growth as a single agent” value is > 50%. Moreover, in data set [15] (cisplatin and 673A), the “mice disease free at 6 months” value is 62%. Besides, the “mice that developed tumors” value in the data set with CaoV3 cells (cisplatin and 673A) stood at 40%; with CaoV3 cells (single agent), 50%. Also, the “mice tumor free at conclusion of experiment” value in data set [16] (carboplatin weekly and 673A 20 mg/kg daily for 7 weeks) is on record as 27%.
Regarding `CCN(CC)c1ccc(C=O)cc1` [DEAB, N,N-diethylaminobenzaldehyde, reference compound], in the data set on PEO1 cells (PEO1 cells, 6 h, equimolar doses (25 μM)), the “inhibition of ALDEFLUOR activity” value is listed as 40%. In data set [2], the “depletion of CD133+ CSCs / toxicity” value is on record as “preferential depletion of CD133^+ cells”.
As to `CCN(CC)C(=S)SSC(=S)N(CC)CC` [DSF, disulfiram, reference compound], the “effect on cancer growth” value in the data set on SKOv3 cells (SKOv3 treated in vitro, 5,000 live cells injected) was “no effect on cancer growth”.
On to `N.N.O=C([O-])C1(C(=O)[O-])CCC1.[Pt+2]` [carboplatin, reference compound], for which the “mice tumor free after therapy” value in data set [16] (carboplatin alone, 25 mg/kg weekly) turned out to be 16%.
Regarding `N.N.[Cl][Pt][Cl]` [cisplatin, reference compound], the cellular recovery in [8] stood at 100%. In [15] (cisplatin only), the mice that died is recorded as 100%. Further, the “mice that developed tumors” value with CaoV3 cells (single agent) is “Ninety”.
As to `O=c1c(-c2ccc(O)cc2)coc2cc(O[C@@H]3O[C@H](CO)[C@@H](O)[C@H](O)[C@H]3O)ccc12` [daidzin, reference compound], the “depletion of CD133+ CSCs / toxicity” value in data set [2] is “no significant toxicity”. In addition, the “therapeutic benefit of addition to cisplatin” value in data set [8] (SKOv3, added to cisplatin) was “No therapeutic benefit”.

A word on the pIC50: it is the negative decadic logarithm of the IC50, by convention in mol/L. The low end stands for a large IC50, the high end for a small IC50. One may read the inhibition as the relative decrease from the control value, in per cent.

The values are drawn from PMC7061440 (Cell reports, 2019).
